According to article PMC10385865, “Synthesis and Anticancer Activity of Novel Dual Inhibitors of Human Protein Kinases CK2 and PIM-1” (Pharmaceutics, 2023):
pKi: −log10 of the molar value.

Columns and labels:
[1] = test system: phosphorylation of Ser112 in BAD (marker of PIM-1 activity), CCRF-CEM; experiment: Western blot/densitometry, intracellular PIM-1 inhibition, CCRF-CEM; assay type: cell-based, human; conditions: 48 h
Procedure: (§1) All the procedures are described in detail in Supplementary Materials (Section S3.3). The protein concentration was determined using a Bradford assay.
(§2) For densitometry, immunoblots were scanned using G Box Chemi (Syngene, Cambridge, UK), and the density of each lane of phosphorylated and total protein was quantified using GeneSys software (Syngene, Cambridge, UK). Phosphorylated protein densities were normalized to GAPDH densities, assuming 1 for untreated cells; then, they were converted to a percentage of the appropriate control.
(§3) The data obtained for p65 confirmed the intracellular inhibition of CK2 by the tested compounds in all the studied cell lines in a dose-dependent manner. […] Otherwise, Western blot data for BAD (a marker of PIM-1 activity) indicated inhibition of PIM-1 only in MCF-7 cells, with the most significant reduction in phosphorylated BAD in cells treated with 10 µM conc. of rac-6 (0.49 of control) (Figure 8b). Unexpectedly, the relative level of BAD-P in the drug-treated CCRF-CEM and K-562 cells was even higher than in control cells.
(§4) The following primary antibodies were used: anti-GAPDH (Millipore, St. Louis, MO, USA; […]
(§5) overnight, +4°C); anti-BAD (Apoptosis I Sampler Kit, # 612741, BD Biosciences, San Diego, CA, USA; 1:1000, overnight, +4°C), anti-phospho-BAD-Ser112 (CST, Beverly, MA, USA; 9291S, 1:500 overnight, +4°C). […]

[2] = target: T1, human CK2α (Homo sapiens, UniProt P68400); experiment: P81 filter isotopic (radiometric) kinase assay, CK2 catalytic subunit; assay type: biochemical; conditions: substrate peptide […], Ki from IC50 by Cheng–Prusoff
T1 construct: made in house
Procedure: (§6) The obtained compounds were tested for their inhibitory activity toward human CK2α, human CK2 holoenzyme, and PIM-1 using a P81 filter isotopic assay as described previously. […] The experimental data were fitted to the sigmoidal dose–response equation, i.e., (variable slope) Y = Bottom + (Top-Bottom)/(1 + 10^((LogIC50−X)∗HillSlope), in GraphPad Prism (Prism 9, v. 9.0.1).
(§7) Inhibition of the human CK2 catalytic subunit (CK2α), CK2 holoenzyme (CK2α2β2), and PIM-1 by the newly obtained compounds was evaluated using a radiometric assay (Table 1, Figure S2). The synthetic peptide […] was used as the substrate of CK2, and peptide […] was used as the substrate of PIM-1. The values of the inhibition constant (Ki) were calculated using the Cheng–Prusoff equation: Ki = IC50/(1 + [S]/Km).

[3] = test system: CCRF-CEM cells; experiment: Mitochondrial membrane potential (ΔΨm) assay, JC-1, flow cytometry; assay type: cell-based, human; conditions: 10 µM, 48 h
Procedure: Mitochondrial membrane potential was assessed by flow cytometry using 5,5′,6,6′-tetrachloro-1,1′,3,3′-tetraethylbenzimidazolocarbocyanine iodide (JC-1; Sigma-Aldrich, St. Louis, MO, USA). JC-1 undergoes potential-dependent accumulation in mitochondria. In healthy cells, the dye accumulates in mitochondria, forming aggregates with red fluorescence (FL-2 channel), whereas in dead and apoptotic cells, the dye remains in the cytoplasm in a monomeric form and emits green fluorescence (FL-1 channel). Cells were harvested by centrifugation 48 h post treatment, suspended in 1 mL of complete culture medium at approximately 1 × 10^6 cells/mL, and incubated with 2.5 µL of JC-1 solution in DMSO (1 mg/mL) for 15 min at 37 °C in the dark. The stained cells were then washed with cold PBS, suspended in 400 µL of PBS, and examined by flow cytometry.
The most significant effect, i.e., 45% of cells with reduced ΔΨm, was obtained in cells treated with 10 µM conc. of rac-6.

[4] = target: T2, human CK2 holoenzyme (CK2α2β2) (Homo sapiens, UniProt P68400); experiment: P81 filter isotopic (radiometric) kinase assay, CK2 holoenzyme; assay type: biochemical; conditions: substrate peptide […], Ki from IC50 by Cheng–Prusoff
T2 construct: made in house
Procedure: as §6, §7

[5] = test system: phosphorylation of Ser112 in BAD (marker of PIM-1 activity), MCF-7; experiment: Western blot/densitometry, intracellular PIM-1 inhibition, MCF-7; assay type: cell-based, human; conditions: MCF-7, 10 µM, 48 h, densitometry
Procedure: as §1, §2, §3, §4, §5

T2 sequence (P68400 whole entry): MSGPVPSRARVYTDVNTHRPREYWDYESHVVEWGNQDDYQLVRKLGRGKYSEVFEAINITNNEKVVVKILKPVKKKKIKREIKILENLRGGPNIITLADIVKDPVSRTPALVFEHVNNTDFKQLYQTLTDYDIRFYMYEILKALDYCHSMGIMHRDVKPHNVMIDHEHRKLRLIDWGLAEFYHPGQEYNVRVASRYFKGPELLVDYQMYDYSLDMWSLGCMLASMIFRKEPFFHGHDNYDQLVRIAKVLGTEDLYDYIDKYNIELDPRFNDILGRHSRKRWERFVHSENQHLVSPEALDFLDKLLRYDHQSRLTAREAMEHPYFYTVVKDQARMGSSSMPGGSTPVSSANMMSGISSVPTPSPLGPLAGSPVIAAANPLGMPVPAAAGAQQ
T2 sequence (P67870 whole entry partner): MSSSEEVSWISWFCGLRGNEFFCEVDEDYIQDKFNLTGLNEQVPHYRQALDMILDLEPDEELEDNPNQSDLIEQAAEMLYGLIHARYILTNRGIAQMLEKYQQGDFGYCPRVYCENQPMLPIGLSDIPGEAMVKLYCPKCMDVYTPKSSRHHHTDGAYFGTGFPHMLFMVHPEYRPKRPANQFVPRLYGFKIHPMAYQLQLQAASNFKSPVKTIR
T1 sequence (P68400 whole entry): as the sequence (P68400 whole entry) above

pKi [2]: 6.53
pKi [4]: 6.95
Compound: OC(CNc1nc2c(Br)c(Br)c(Br)c(Br)c2[nH]1)C(F)(F)F (racemic) [rac-6, 1,1,1-Trifluoro-3-[(4,5,6,7-tetrabromo-1H-benzimidazol-2-yl)amino]propan-2-ol]
level of phosphorylated BAD (in words) [1]: increased level of phosphorylated BAD
cells with reduced ΔΨm [3]: 45%
phosphorylated BAD, relative level [5]: 0.49 of control
